In PMC7785020, “A unique hormonal recognition feature of the human glucagon-like peptide-2 receptor” (Cell Research, 2020):
Changes are numbered by the printed parent chain. Like-named read-outs stand apart in the source and are kept apart here. Each block holds one compound with its values, some of them ahead of it. No end group written: not given here.

What was measured:
GLP-2R R242^ECL1E = molecular target: T1, GLP-2R R242^ECL1E (Homo sapiens, UniProt O95838, R242E); test: cAMP accumulation, R242^ECL1E; assay type: cell-based; design: WT (1–553); expressed in transfected cells; HEK 293T (cAMP); details: HEK 293T, 30 min, RT, mean ± SEM, n ≥ 3 in duplicate; for Emax: HEK-293T, read-out: cAMP Emax (% WT); for EC50: read-out: cAMP pEC50 (converted)
T1 sequence (O95838 1-553 R242E): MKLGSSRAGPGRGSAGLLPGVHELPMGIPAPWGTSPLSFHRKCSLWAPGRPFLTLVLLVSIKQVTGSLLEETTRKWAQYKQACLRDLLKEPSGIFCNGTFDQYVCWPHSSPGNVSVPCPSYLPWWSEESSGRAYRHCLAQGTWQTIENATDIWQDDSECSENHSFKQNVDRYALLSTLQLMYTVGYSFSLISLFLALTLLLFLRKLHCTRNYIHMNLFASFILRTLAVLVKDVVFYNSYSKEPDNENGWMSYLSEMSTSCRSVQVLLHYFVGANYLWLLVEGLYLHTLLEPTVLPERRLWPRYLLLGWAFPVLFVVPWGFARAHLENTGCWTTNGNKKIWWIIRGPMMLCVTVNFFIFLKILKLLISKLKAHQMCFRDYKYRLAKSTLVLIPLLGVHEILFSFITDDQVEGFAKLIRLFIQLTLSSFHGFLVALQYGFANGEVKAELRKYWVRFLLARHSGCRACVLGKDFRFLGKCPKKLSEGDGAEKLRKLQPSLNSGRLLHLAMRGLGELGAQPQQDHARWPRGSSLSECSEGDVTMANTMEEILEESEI
Procedure: (§1) They were seeded onto 6-well cell culture plates and transiently transfected with different GLP-2R constructs using Lipofectamine 2000 transfection reagent (Invitrogen, Carlsbad, CA, USA). After 24 h, the transfected cells were seeded onto 384-well microtiter plates (3000 cells per well) in HBSS supplemented with 5 mM HEPES, 0.1% (w/v) bovine serum albumin (BSA) and 0.5 mM 3-isobutyl-1- methylxanthine, and stimulated with increasing concentrations of GLP-2 for 30 min at RT. Eu and Ulight were diluted by cAMP detection buffer and added to the plates separately to terminate the reaction. Plates were incubated at RT for 60 min before measuring the fluorescence intensity at 620 nm and […] by an EnVision multilabel plate reader (PerkinElmer, Boston, USA).

GLP-2R D244^ECL1A = molecular target: T2, GLP-2R D244^ECL1A (Homo sapiens, UniProt O95838, D244A); test: cAMP accumulation, D244^ECL1A; assay type: cell-based; design: WT (1–553); expressed in transfected cells; HEK 293T (cAMP); details: Table S5, D244A, HEK 293T, 30 min, RT, mean ± SEM, n ≥ 3 in duplicate; for Emax: read-out: cAMP Emax (% WT); for EC50: read-out: cAMP pEC50 (converted)
T2 sequence (O95838 1-553 D244A): T1 sequence (O95838 1-553 R242E) with E242R, D244A
Procedure: as §1, with “HEK 293T cells were cultured in Dulbecco’s Modified Eagle’s Medium (DMEM) (Gibco, Waltham, USA) supplemented with 10% (v/v) fetal bovine serum (FBS) (Gibco) and 1% (v/v) sodium pyruvate (Gibco) at 37 °C, 5% CO2 in a humidified incubator. They” for “They”

GLP-2R WT (1–553) = molecular target: T3, GLP-2R WT (1–553) (Homo sapiens, UniProt O95838); test: radioligand competition binding, WT; details: COS-7, WT (1–553); [^125I]GLP-2(1–33, M10Y) 10–15 pM, 4 h, 4 °C; mean ± SEM, n ≥ 3 in duplicate
T3 construct: WT (1–553); expressed in transfected cells; host or cells: COS-7
Procedure: A stepwise oxidation reaction was performed by addition of 6 aliquots of 5 µL ChloramineT (30 µL/mL) with a 1-min interval during constant stirring. The reaction was terminated by the addition of 400 µL phase A (0.1% trifluoracetic acid) before being fractionated into 1 mL volume by reverse-phase high-performance liquid chromatography (RP-HPLC, Waters 600 SimiPrep system) on a C18 column. The iodinated protein was […] by increasing concentrations of phase B (Acetonitrile + 0.1% TFA) and tested for competitive binding ability.
One day before transfection, the COS-7 cells were seeded in 75 cm^2 culture flasks (3 million cells/flask) in DMEM, containing 3.9 g/L NaHCO3 and supplemented with 10% FBS, 1% L-glutamine, 180 units/mL penicillin and 45 µg/mL streptomycin. After an overnight culture at 37 °C, 10% CO2 and 95% air humidity, the cells were transiently transfected with different GLP-2R constructs or pcDNA3.1 vector as previously described.[52] Following 24-h incubation, the cells were transferred to Costa® microtiter plates (150,000 cells/well, PerkinElmer) to achieve a 5%–10% specific binding. […] The cells were then washed twice in binding buffer (4 °C), lysed and counted for radioactivity using a Wallac Gamma Counter (PerkinElmer).

T3 sequence (O95838 whole entry): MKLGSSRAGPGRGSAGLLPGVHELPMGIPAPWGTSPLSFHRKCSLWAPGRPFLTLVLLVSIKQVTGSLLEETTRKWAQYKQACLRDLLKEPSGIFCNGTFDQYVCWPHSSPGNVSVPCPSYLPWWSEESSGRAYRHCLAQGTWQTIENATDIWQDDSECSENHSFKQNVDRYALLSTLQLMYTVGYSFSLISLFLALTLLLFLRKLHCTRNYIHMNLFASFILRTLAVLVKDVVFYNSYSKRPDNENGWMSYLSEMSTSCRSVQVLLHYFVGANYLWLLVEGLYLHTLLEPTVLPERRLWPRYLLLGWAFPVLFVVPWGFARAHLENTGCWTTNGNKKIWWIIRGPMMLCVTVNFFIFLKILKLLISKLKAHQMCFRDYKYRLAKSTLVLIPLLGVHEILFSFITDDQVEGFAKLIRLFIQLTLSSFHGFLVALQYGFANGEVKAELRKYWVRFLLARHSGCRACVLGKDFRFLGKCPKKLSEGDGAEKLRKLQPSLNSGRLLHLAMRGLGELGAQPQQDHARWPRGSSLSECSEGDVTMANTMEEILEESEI

Compound: CC[C@H](C)[C@H](NC(=O)[C@H](Cc1ccccc1)NC(=O)[C@H](CC(=O)O)NC(=O)[C@H](CCCNC(=N)N)NC(=O)[C@H](C)NC(=O)[C@H](C)NC(=O)[C@H](CC(C)C)NC(=O)[C@H](CC(N)=O)NC(=O)[C@H](CC(=O)O)NC(=O)[C@H](CC(C)C)NC(=O)[C@@H](NC(=O)[C@@H](NC(=O)[C@H](CC(N)=O)NC(=O)[C@H](CCSC)NC(=O)[C@H](CCC(=O)O)NC(=O)[C@H](CC(=O)O)NC(=O)[C@H](CO)NC(=O)[C@H](Cc1ccccc1)NC(=O)[C@H](CO)NC(=O)CNC(=O)[C@H](CC(=O)O)NC(=O)[C@H](C)NC(=O)[C@@H](N)Cc1c[nH]cn1)[C@@H](C)O)[C@@H](C)CC)C(=O)N[C@@H](CC(N)=O)C(=O)N[C@@H](Cc1c[nH]c2ccccc12)C(=O)N[C@@H](CC(C)C)C(=O)N[C@H](C(=O)N[C@@H](CCC(N)=O)C(=O)N[C@H](C(=O)N[C@@H](CCCCN)C(=O)N[C@H](C(=O)N[C@H](C(=O)N[C@@H](CC(=O)O)C(=O)O)[C@@H](C)O)[C@@H](C)CC)[C@@H](C)O)[C@@H](C)CC [Human GLP-2 (1–33)]
- Emax (GLP-2R R242^ECL1E; Table S3, R242E): 108 ± 1.9%
- Emax (GLP-2R R242^ECL1E; Table S5, R242E): 103 ± 2.3%
- Emax (GLP-2R D244^ECL1A): 101 ± 2.8%
- % Binding of WT (GLP-2R WT (1–553)): 99.2 ± 2.3%

Compound: CC[C@H](C)[C@H](NC(=O)[C@H](Cc1ccccc1)NC(=O)[C@H](CC(=O)O)NC(=O)[C@H](CCCNC(=N)N)NC(=O)[C@H](C)NC(=O)[C@H](C)NC(=O)[C@H](CC(C)C)NC(=O)[C@H](CC(N)=O)NC(=O)[C@H](CC(=O)O)NC(=O)[C@H](CC(C)C)NC(=O)[C@@H](NC(=O)[C@@H](NC(=O)[C@H](CC(N)=O)NC(=O)[C@H](CCSC)NC(=O)[C@H](CCC(=O)O)NC(=O)[C@H](CC(=O)O)NC(=O)[C@H](CO)NC(=O)[C@H](Cc1ccccc1)NC(=O)[C@H](CO)NC(=O)CNC(=O)[C@H](CC(=O)O)NC(=O)CNC(=O)[C@@H](N)Cc1c[nH]cn1)[C@@H](C)O)[C@@H](C)CC)C(=O)N[C@@H](CC(N)=O)C(=O)N[C@@H](Cc1c[nH]c2ccccc12)C(=O)N[C@@H](CC(C)C)C(=O)N[C@H](C(=O)N[C@@H](CCC(N)=O)C(=O)N[C@H](C(=O)N[C@@H](CCCCN)C(=O)N[C@H](C(=O)N[C@H](C(=O)N[C@@H](CC(=O)O)C(=O)O)[C@@H](C)O)[C@@H](C)CC)[C@@H](C)O)[C@@H](C)CC [Teduglutide]
- % Binding of WT (GLP-2R WT (1–553)): 99.7 ± 1.9%

Compound: HAEGTFSDEMNTILDNLAARDFINWLIQTKITD [Chimeric GLP-1/GLP-2 (1-6)]
- Emax (GLP-2R R242^ECL1E; Table S5, R242E): 108 ± 3.2%
- EC50 (GLP-2R R242^ECL1E; Table S5, R242E): 25.1 nM
- Emax (GLP-2R D244^ECL1A): 102 ± 2.5%
- EC50 (GLP-2R D244^ECL1A): 0.251 nM

The remaining lines, values ahead:

- Emax (GLP-2R R242^ECL1E; Table S5, R242E): 108 ± 5.5%
- EC50 (GLP-2R R242^ECL1E; Table S5, R242E): 39.8 nM
- Emax (GLP-2R D244^ECL1A): 102 ± 1.8%
- EC50 (GLP-2R D244^ECL1A): 3.16 nM
Compound: HADGSFTSDVSSYLEGQAARDFINWLIQTKITD [Chimeric GLP-1/GLP-2 (7-19)]

- Emax (GLP-2R R242^ECL1E; Table S5, R242E): 103 ± 3.5%
- EC50 (GLP-2R R242^ECL1E; Table S5, R242E): 5.01 nM
- Emax (GLP-2R D244^ECL1A): 104 ± 1.8%
- EC50 (GLP-2R D244^ECL1A): 0.251 nM
Compound: HADGSFSDEMNTILDNLAAKEFIAWLVKGRG [Chimeric GLP-1/GLP-2 (20-33)]
